{"source": "patent US12144910B2", "about": "“Methods of coating antimicrobial peptides on the biomaterial and the biomaterial coated thereby” (priority 2019, dated 2024)", "key": {"S. aureus [1]": {"tested_on": "S. aureus", "procedure": "Minimum inhibitory concentration (MIC) and minimum bactericidal concentration (MBC). […] The suspended AMPs were then loaded into wells of 96-well microplates and incubated at 37° C. overnight with gentle agitation at 100 rpm. The absorbance was measured by SpectraMax 190 microplate reader at 600 nm. The remaining cfu in the mixture was counted after plating on agar plate. Minimum inhibitory concentration (MIC) was defined as the lowest AMP concentration to keep the solution with the same absorbance as that of culture medium without bacteria. […] Alternatively, the MIC of coated AMPs was also determined. […] The free form AMPs as well as surfactant were dissolved in 200 μl sterile media (cell culture medium or human urine) and used as a control for quantitation. The potency of antimicrobial activity was expressed as the dilution folds to reach the MIC, in which no bacteria grow in the medium. At least three independent experiments were performed to determine the value."}, "E. coli ATCC 23502": {"tested_on": "E. coli ATCC 23502", "test": "Potency of antimicrobial activity as dilution folds to reach the MIC", "type": "cell-based", "conditions": "for Potency (x) MIC to E. coli, Serum / Potency (x) MIC to E. coli, Urine: dilution fold, free form, 1× = 8 μg AMP; for Potency (x) MIC to E. coli, Serum: 16 μg PXB and/or 25 μg SDS in 200 μl serum; for Potency (x) MIC to E. coli, Urine: 16 μg PXB and/or 25 μg SDS in 200 μl urine", "description": "Minimum inhibitory concentration (MIC) and minimum bactericidal concentration (MBC). […] Alternatively, the MIC of coated AMPs was also determined. […] The urine and serum were changed daily. Two μl of the incubation urine or serum being replaced (containing released/free SAAP159+PXB) or its dilutions were dotted onto the top layer of the microbe-containing agar plates and incubated at 37° C. overnight, following which the assessment of formation of growth inhibition zone was carried out. Defined amounts of mixed antimicrobials were used as a standard for the quantitation of the released antimicrobials. The amount of antimicrobial mixture which was able to form visible inhibition zone on the agar plate is defined as one unit of antimicrobial activity. […] The absorbance at 600 nm was then determined by SpectraMax 190 microplate reader. Minimal inhibitory concentration (MIC), which is defined as the concentration of (diluted) sample serum or urine which is able to keep the absorbance of the bacteria-containing media no different to that of media only, was determined. The potency of antimicrobial activity, which is defined as the dilution fold of antimicrobial-containing urine or serum that achieves MIC, was also determined."}, "mouse red blood cells": {"tested_on": "mouse red blood cells", "test": "Hemolytic assay", "conditions": "dilution fold; free form, 1× = 8 μg AMP, 16 μg PXB and/or 25 μg SDS in 200 μl", "procedure": "The blood cells were pelleted and rinsed three times with 10% FBS in RPMI1640, and re-suspended in the same buffer. The erythrocytes (1.5×10^7 cells) were then added to the solution containing free dual AMP/surfactant or overnight released components from silicone discs in 200 μl and incubation at 37° C. for one hr. The supernatants (150 μl) after centrifugation were transferred to 96-well plate for the measurement of the absorbance of released hemoglobin by SpectraMax 190 microplate reader (Molecular Devices, CA, USA) at 414 nm. Percent hemolysis was calculated using the following formula: % hemolysis=[(A414sample−A414medium)/(A4140.1% Triton-X 100−A414medium)]. Zero and 100% hemolysis were determined in medium and 0.1% Triton-X 100, respectively."}, "[2]": {"tested_on": "Human bladder carcinoma cell line (NTUB1)", "test": "Cytotoxicity assay (WST-1)", "conditions": "for Potency (x) Cytotoxicity to NTUB1 IC50: dilution fold, free form, 1× = 8 μg AMP, 16 μg PXB and/or 25 μg SDS in 200 μl", "procedure": "NTUB1 cells were maintained at 37° C. in a humidified incubator under 5% CO2 atmosphere in RPMI1640 containing 10% FBS, 100 U/ml penicillin and 100 μg/ml streptomycin. The NTUB1 cells were seeded in the respective wells of a 96-well plate at a density of 1.5×10^4 cells/1000 for 24 hr. The cells were further incubated in 2000 free antimicrobial/surfactant or components released from silicone disc after overnight incubation. After 20 hr incubation, 900 of fresh culture medium and 100 of WST-1 agent (Roche, Basel, Switzerland) were added to the drained wells and incubated for two 2 hr before measuring the absorbance by SpectraMax 190 microplate reader at 450 nm. Percent of cytotoxicity was determined using the following formula: % cytotoxicity=[(A450sample−A450positive control)/(A450negative control−A450positive control)]. Positive control was NTUB1 cells only, whereas negative control was medium without cells."}, "[3]": {"type": "physicochemical", "set-up": "time stable in human urine: unit not given here", "conditions": "for time stable in human urine: coated onto the microplate by SDS, examined under the microscope; for stability in urine: one-day incubation; for time stable in 10% FBS: single AMP coated by SDBS on polystyrene; for time stable in urine: single AMP coated by SDS (two-step) on polystyrene, SDS-PAGE"}, "S. aureus [4]": {"tested_on": "S. aureus", "test": "Inhibition zone assay on agar plate", "type": "cell-based, Staphylococcus aureus", "conditions": "free AMP, 2 μl dotted on agar plate", "description": "(§1) Inhibition zone. Bacteria were cultured in Luria-Bertani broth and plated on Luria-Bertani agar for E. coli (ATCC 23502) and Pseudomonas aeruginosa (ATCC 27853) at 37° C. Staphylococcus aureus (ATCC 6538P) was cultured and plated in/on tryptic soy broth/agar. Candida albicans (ATCC 14053) were cultured in/on YM broth/agar at 30° C. Five ml of low melting agar (1%) mixed with 100 μl of overnight-cultured bacteria was spread on top of 1% regular agar plate. Two μl of antimicrobial peptides at various concentrations were dotted on the top layer of microbe-containing agar plates and incubated overnight for the development of inhibition zone."}, "P. aeruginosa 27853": {"tested_on": "P. aeruginosa 27853", "test": "Inhibition zone assay on agar plate", "type": "cell-based, Pseudomonas aeruginosa", "conditions": "free AMP, 2 μl dotted on agar plate", "description": "as §1"}, "[5]": {"conditions": "free AMP, LB, 3.5 × 10^5 cfu/ml"}}, "note": "Like-named read-outs stand apart in the source and are kept apart here. Non-standard residues stand in square brackets, D forms with d. No end group written: not given here."}
{"molecule": "CC[C@H](C)[C@H](NC(=O)[C@H](CCCNC(=N)N)NC(=O)[C@H](CCCNC(=N)N)NC(=O)[C@H](CC(C)C)NC(=O)[C@H](Cc1c[nH]c2ccccc12)NC(=O)[C@H](C)NC(=O)[C@H](CCCCN)NC(=O)[C@@H](NC(=O)[C@H](CCCNC(=N)N)NC(=O)[C@H](CCCNC(=N)N)NC(=O)[C@H](CC(C)C)NC(=O)[C@@H](N)Cc1c[nH]c2ccccc12)[C@@H](C)CC)C(=O)N[C@@H](CCCCN)C(=O)N[C@@H](C)C(=O)O", "note": "[RRIKA]", "values": [{"measurement": "MBC", "setting": "E. coli 23502; 23502", "value": 128, "unit": "µg/mL"}, {"measurement": "MIC", "setting": "E. coli 23502; 23502", "value": 128, "unit": "µg/mL"}, {"measurement": "MBC", "setting": "S. aureus [1]", "value": 128, "unit": "µg/mL"}, {"measurement": "MIC", "setting": "S. aureus [1]", "value": 64, "unit": "µg/mL"}]}
{"molecule": "CCCCCCCCCCCCOS(=O)(=O)[O-].[Na+]", "note": "[SDS, sodium dodecyl sulfate]", "values": [{"measurement": "Potency (x) MIC to E. coli, Serum", "setting": "E. coli ATCC 23502", "value": "<1", "unit": "x"}, {"measurement": "Potency (x) MIC to E. coli, Urine", "setting": "E. coli ATCC 23502", "value": "<1", "unit": "x"}, {"measurement": "bactericidal activity against E. coli 23502 in urine or in 10% FBS", "setting": "E. coli ATCC 23502; surfactant alone up to maximal amount (14 μg SDS, 25 μg SDBS) in 200 μl", "value": "did not exert bactericidal activity"}, {"measurement": "Potency (x) Hemolysis of RBC HC50", "setting": "mouse red blood cells", "value": "1-2 x"}, {"measurement": "cytotoxicity toward NTUB1 cells", "setting": "[2]; 25 μg in 200 μl", "value": 99, "unit": "%"}, {"measurement": "Potency (x) Cytotoxicity to NTUB1 IC50", "setting": "[2]", "value": "1-2 x"}, {"measurement": "cytotoxicity toward NTUB1 cells", "setting": "[2]; half of the total amount (of 25 μg in 200 μl)", "value": 35, "unit": "%"}, {"measurement": "cytotoxicity toward human bladder cells (NTUB1) (in words)", "setting": "[2]; maximal amount that may be coated and released (SDS 14 μg; AMP pairs 12 μg each) in 200 μl", "value": "low cytotoxicity"}]}
{"molecule": "GRFKRFRKKFKKLFKKLSPVIPLLHLG (G[dR][dF][dK][dR][dF][dR][dK][dK][dF][dK][dK][dL][dF][dK][dK][dL][dS][dP][dV][dI][dP][dL][dL][dH][dL]G) [L-BMAP27]", "values": [{"measurement": "time stable in human urine", "setting": "[3]", "value": "at least three"}]}
{"molecule": "GRFKRFRKKFKKLFKKLSPVIPLLHLG-OH (All in D form) (G[dR][dF][dK][dR][dF][dR][dK][dK][dF][dK][dK][dL][dF][dK][dK][dL][dS][dP][dV][dI][dP][dL][dL][dH][dL]G-OH) [D-BMAP27]", "values": [{"measurement": "time stable in human urine", "setting": "[3]", "value": "at least three"}]}
{"molecule": "H-FIHHIIGGLFSAGKAIHRLIRRRRR-OH [TP4, antimicrobial peptide Piscidins 4]", "values": [{"measurement": "stability in urine", "setting": "[3]; coated by SDBS on microplates", "value": "stable in urine"}, {"measurement": "stability in urine", "setting": "[3]; coated by SOS or SDSn on microplates", "value": "not those coated by SOS or SDSn"}, {"measurement": "time stable in human urine", "setting": "[3]", "value": "at least three"}]}
{"molecule": "H-FIHHIIGGLFSAGKAIHRLIRRRRR-OH [TP4-A12,15I]", "values": [{"measurement": "time stable in 10% FBS", "setting": "[3]", "value": "two"}]}
{"molecule": "H-RRLIRLILRLLR-NH2 [RR12]", "values": [{"measurement": "time stable in 10% FBS", "setting": "[3]", "value": "two"}, {"measurement": "antimicrobial activity by inhibition zone (in words)", "setting": "S. aureus [4]", "value": "very active"}, {"measurement": "MBC", "setting": "E. coli 23502; 23502", "value": 4, "unit": "µg/mL"}, {"measurement": "MIC", "setting": "E. coli 23502; 23502", "value": 4, "unit": "µg/mL"}, {"measurement": "MBC", "setting": "S. aureus [1]", "value": 4, "unit": "µg/mL"}, {"measurement": "MIC", "setting": "S. aureus [1]", "value": 4, "unit": "µg/mL"}]}
{"molecule": "KWKLFKKIGIGAVLKVLKKG-NH2 [T18,19K]", "values": [{"measurement": "time stable in urine", "setting": "[3]", "value": 6, "unit": "days"}, {"measurement": "time stable in serum", "setting": "[3]; single AMP coated by SDS on polystyrene", "value": "not stable"}, {"measurement": "MBC", "setting": "E. coli 23502; [5]", "value": 64, "unit": "µg/mL"}, {"measurement": "MIC", "setting": "E. coli 23502; [5]", "value": 64, "unit": "µg/mL"}, {"measurement": "MBC", "setting": "S. aureus [1]; free AMP, TSB, 4 × 10^5 cfu/ml", "value": ">512", "unit": "µg/mL"}, {"measurement": "MIC", "setting": "S. aureus [1]; free AMP, TSB, 4 × 10^5 cfu/ml", "value": ">512", "unit": "µg/mL"}]}
{"molecule": "LKRLYKRVFRLLKRYYRQLRRPVR-OH [SAAP159]", "values": [{"measurement": "time stable in human urine", "setting": "[3]", "value": "at least three"}, {"measurement": "time stable in urine", "setting": "[3]", "value": 12, "unit": "days"}, {"measurement": "MBC", "setting": "E. coli 23502; 23502", "value": 64, "unit": "µg/mL"}, {"measurement": "MIC", "setting": "E. coli 23502; 23502", "value": 64, "unit": "µg/mL"}, {"measurement": "MBC", "setting": "S. aureus [1]", "value": ">512", "unit": "µg/mL"}, {"measurement": "MIC", "setting": "S. aureus [1]", "value": 512, "unit": "µg/mL"}]}
{"molecule": "Polymyxin B [PXB, reference compound]", "values": [{"measurement": "Potency (x) MIC to E. coli, Serum", "setting": "E. coli ATCC 23502", "value": 512, "unit": "x"}, {"measurement": "Potency (x) MIC to E. coli, Urine", "setting": "E. coli ATCC 23502", "value": 128, "unit": "x"}, {"measurement": "Potency (x) Hemolysis of RBC HC50", "setting": "mouse red blood cells", "value": "<1", "unit": "x"}, {"measurement": "Potency (x) Cytotoxicity to NTUB1 IC50", "setting": "[2]", "value": "<1", "unit": "x"}]}
{"molecule": "RFRRLRKKWRKRLKKI-NH2 [T9W]", "values": [{"measurement": "time stable in urine", "setting": "[3]", "value": 6, "unit": "days"}, {"measurement": "antimicrobial activity by inhibition zone (in words)", "setting": "P. aeruginosa 27853", "value": "preferentially killed"}, {"measurement": "MBC", "setting": "E. coli 23502; 23502", "value": ">512", "unit": "µg/mL"}, {"measurement": "MIC", "setting": "E. coli 23502; 23502", "value": ">512", "unit": "µg/mL"}, {"measurement": "MBC", "setting": "S. aureus [1]", "value": ">512", "unit": "µg/mL"}, {"measurement": "MIC", "setting": "S. aureus [1]", "value": ">512", "unit": "µg/mL"}]}
{"molecule": "RGLRRLGRKIVHVVKKYLPTVLRIIRIA-NH2 [SMAP28-3]", "values": [{"measurement": "time stable in human urine", "setting": "[3]", "value": "at least three"}]}
{"molecule": "RGLRRLGRKIVHVVKKYLPTVLRIIRRL-NH2 [SMAP28-3 + 2]", "values": [{"measurement": "time stable in human urine", "setting": "[3]", "value": "at least three"}, {"measurement": "time stable in 10% FBS", "setting": "[3]", "value": "one"}, {"measurement": "MBC", "setting": "E. coli 23502; 23502", "value": 8, "unit": "µg/mL"}, {"measurement": "MIC", "setting": "E. coli 23502; 23502", "value": 4, "unit": "µg/mL"}, {"measurement": "MBC", "setting": "S. aureus [1]", "value": 32, "unit": "µg/mL"}, {"measurement": "MIC", "setting": "S. aureus [1]", "value": 32, "unit": "µg/mL"}]}
